{
  "source": "paper PMC5960316",
  "about": "(Proceedings of the National Academy of Sciences of the …, 2018)",
  "key": {"[1]": {"biological_target": "T1, B. subtilis class Ib RNR (NrdE with Mn(III)2-Y• NrdF) (Bacillus subtilis, UniProt P50620)", "T1 sequence (P50620 1-700)": "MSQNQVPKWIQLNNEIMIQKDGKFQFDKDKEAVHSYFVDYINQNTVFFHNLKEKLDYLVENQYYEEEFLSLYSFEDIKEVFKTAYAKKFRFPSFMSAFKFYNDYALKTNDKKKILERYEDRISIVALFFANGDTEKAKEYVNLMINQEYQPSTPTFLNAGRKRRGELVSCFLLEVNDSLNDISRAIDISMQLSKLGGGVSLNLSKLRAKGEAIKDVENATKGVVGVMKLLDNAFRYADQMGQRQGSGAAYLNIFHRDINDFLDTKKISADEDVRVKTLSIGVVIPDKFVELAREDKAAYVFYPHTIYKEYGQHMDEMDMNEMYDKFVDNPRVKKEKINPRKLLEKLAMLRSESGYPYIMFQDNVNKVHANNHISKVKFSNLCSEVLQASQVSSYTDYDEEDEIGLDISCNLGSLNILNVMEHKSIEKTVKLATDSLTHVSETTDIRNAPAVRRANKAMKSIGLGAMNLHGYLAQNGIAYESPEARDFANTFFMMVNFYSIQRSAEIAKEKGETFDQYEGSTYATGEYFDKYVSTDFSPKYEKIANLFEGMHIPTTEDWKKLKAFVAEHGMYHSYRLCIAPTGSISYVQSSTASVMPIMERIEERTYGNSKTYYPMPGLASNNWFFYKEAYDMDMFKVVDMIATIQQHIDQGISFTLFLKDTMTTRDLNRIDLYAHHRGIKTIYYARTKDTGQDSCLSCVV", "T1 sequence (P50621 1-329 partner)": "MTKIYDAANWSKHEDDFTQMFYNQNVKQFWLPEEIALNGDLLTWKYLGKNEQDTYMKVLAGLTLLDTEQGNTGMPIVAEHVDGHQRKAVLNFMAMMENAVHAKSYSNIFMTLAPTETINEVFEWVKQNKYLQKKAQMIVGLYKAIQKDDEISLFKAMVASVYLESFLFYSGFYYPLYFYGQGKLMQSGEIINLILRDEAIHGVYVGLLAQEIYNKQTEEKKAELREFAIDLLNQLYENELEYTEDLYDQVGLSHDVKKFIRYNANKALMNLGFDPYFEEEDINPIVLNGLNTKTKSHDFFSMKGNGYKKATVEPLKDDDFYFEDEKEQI", "assay": "spectrophotometric RNR activity assay, dATP titration", "format": "biochemical", "details": "read-out: % activity remaining at 25 μM"}, "[2]": {"biological_target": "T2, endogenous NrdEF (BsNrdEF) (Bacillus subtilis, UniProt P50620)", "T2 sequence (P50620 1-700)": "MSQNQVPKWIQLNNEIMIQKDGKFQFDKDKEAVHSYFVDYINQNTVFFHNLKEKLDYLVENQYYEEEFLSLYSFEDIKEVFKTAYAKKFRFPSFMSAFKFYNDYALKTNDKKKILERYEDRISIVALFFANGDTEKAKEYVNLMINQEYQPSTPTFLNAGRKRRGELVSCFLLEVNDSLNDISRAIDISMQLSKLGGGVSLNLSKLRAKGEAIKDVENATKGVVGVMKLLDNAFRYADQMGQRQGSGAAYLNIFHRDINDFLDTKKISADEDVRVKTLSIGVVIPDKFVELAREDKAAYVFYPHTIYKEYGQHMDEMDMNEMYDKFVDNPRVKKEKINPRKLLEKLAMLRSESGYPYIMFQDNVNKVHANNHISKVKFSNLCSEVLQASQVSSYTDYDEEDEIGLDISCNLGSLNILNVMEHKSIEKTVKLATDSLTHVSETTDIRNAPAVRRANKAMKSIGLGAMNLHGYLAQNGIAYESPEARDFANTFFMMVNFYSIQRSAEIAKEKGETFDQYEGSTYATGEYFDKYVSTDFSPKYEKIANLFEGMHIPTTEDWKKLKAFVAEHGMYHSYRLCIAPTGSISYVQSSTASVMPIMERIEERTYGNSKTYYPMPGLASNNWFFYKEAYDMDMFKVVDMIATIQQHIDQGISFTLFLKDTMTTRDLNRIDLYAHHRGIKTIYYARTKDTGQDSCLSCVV", "T2 sequence (P50621 1-329 partner)": "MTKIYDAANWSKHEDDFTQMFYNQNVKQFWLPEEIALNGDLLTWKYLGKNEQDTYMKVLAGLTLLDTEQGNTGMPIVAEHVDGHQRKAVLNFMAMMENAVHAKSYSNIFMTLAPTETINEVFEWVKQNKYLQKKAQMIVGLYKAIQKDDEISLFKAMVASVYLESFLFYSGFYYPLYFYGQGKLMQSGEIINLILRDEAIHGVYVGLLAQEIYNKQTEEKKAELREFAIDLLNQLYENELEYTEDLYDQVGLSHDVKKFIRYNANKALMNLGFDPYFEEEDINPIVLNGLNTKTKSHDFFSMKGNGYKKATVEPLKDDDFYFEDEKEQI", "assay": "HClO4 release and high-resolution LC/ESI-MS of copurified nucleotide", "format": "binding", "details": "stoichiometry, not affinity; native copurified ligand; protein ~80% pure"}, "[3]": {"biological_target": "T3, Bacillus subtilis NrdE isolated from B. subtilis as the NrdE⋅NrdF (NrdEF) complex (Bacillus subtilis, UniProt P50620 1-700)", "T3 sequence (looked up)": "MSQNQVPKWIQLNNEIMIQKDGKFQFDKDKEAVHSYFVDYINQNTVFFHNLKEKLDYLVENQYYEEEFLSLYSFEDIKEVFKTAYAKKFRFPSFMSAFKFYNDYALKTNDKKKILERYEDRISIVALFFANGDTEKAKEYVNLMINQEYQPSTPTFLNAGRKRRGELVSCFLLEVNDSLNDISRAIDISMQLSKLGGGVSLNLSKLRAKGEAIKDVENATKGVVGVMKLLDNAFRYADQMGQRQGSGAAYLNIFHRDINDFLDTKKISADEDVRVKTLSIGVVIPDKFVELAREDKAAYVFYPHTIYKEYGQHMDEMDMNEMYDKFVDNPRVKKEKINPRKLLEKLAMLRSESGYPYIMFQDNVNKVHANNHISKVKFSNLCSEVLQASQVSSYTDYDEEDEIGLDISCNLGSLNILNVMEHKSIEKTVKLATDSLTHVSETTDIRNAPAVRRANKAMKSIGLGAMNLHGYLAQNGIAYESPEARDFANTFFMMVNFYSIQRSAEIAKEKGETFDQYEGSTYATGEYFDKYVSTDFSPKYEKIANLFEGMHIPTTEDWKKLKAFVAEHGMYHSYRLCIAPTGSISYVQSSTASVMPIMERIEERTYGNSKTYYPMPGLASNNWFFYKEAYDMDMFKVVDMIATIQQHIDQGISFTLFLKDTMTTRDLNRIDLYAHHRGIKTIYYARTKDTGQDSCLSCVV", "assay": "co-purification from B. subtilis"}},
  "data": [
    {"molecule": "Nc1ncnc2c1ncn2[C@H]1C[C@H](O)[C@@H](COP(=O)(O)OP(=O)(O)OP(=O)(O)O)O1", "note": "[dATP]", "values": [
      {"measurement": "remaining activity at 25 µM", "setting": "[1]", "result": "~15", "unit": "%"}
    ]},
    {"molecule": "Nc1ncnc2c1ncn2[C@H]1C[C@H](O)[C@@H](COP(=O)(O)O)O1", "note": "[dAMP]", "values": [
      {"measurement": "dAMP/α", "setting": "[2]", "result": 0.3, "unit": "per α"}
    ]},
    {"molecule": "Bacillus subtilis NrdF (Mn-loaded) isolated from B. subtilis as the NrdE⋅NrdF (NrdEF) complex (enzyme, UniProt P50621 1-329, looked up) MTKIYDAANWSKHEDDFTQMFYNQNVKQFWLPEEIALNGDLLTWKYLGKNEQDTYMKVLAGLTLLDTEQGNTGMPIVAEHVDGHQRKAVLNFMAMMENAVHAKSYSNIFMTLAPTETINEVFEWVKQNKYLQKKAQMIVGLYKAIQKDDEISLFKAMVASVYLESFLFYSGFYYPLYFYGQGKLMQSGEIINLILRDEAIHGVYVGLLAQEIYNKQTEEKKAELREFAIDLLNQLYENELEYTEDLYDQVGLSHDVKKFIRYNANKALMNLGFDPYFEEEDINPIVLNGLNTKTKSHDFFSMKGNGYKKATVEPLKDDDFYFEDEKEQI", "values": [
      {"measurement": "stoichiometry N", "setting": "[3]", "result": "~1"}
    ]}
  ]
}
